Test results taken from ChEMBL document CHEMBL1201862, “PubChem BioAssay data set” (2004).
The source made the active and inactive calls.

What was measured:
[1] = molecular target: T1, Voltage-dependent T-type calcium channel subunit alpha-1H (Homo sapiens, UniProt O95180); experiment: inhibition of CACNA1H calcium flux – cell-based, SynthLib3 library, HEK293 Cav3.2, fluorescence (AID 493041); type: functional
[2] = molecular target: T1, Voltage-dependent T-type calcium channel subunit alpha-1H; experiment: human CACNA1H calcium influx blockade – cell-based, synthetic library set 2, HEK293 HH8, Fluo-4, SAR follow-up (AID 493023); type: functional
[3] = molecular target: Cytochrome P450 2C19 (Homo sapiens, UniProt P33261); experiment: Cytochrome panel assay with activity outcomes. Panel member name: p450-cyp2c19 Compounds with AC50 equal or less than 10 uM are considered active; type: functional
[4] = molecular target: Cytochrome P450 2C9 (Homo sapiens, UniProt P11712)
[5] = molecular target: T2, Cytochrome P450 1A2 (Homo sapiens, UniProt P05177);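 note: PubChem cytochrome P450 panel assay, CYP1A2 panel member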
T2 sequence (P05177 whole entry): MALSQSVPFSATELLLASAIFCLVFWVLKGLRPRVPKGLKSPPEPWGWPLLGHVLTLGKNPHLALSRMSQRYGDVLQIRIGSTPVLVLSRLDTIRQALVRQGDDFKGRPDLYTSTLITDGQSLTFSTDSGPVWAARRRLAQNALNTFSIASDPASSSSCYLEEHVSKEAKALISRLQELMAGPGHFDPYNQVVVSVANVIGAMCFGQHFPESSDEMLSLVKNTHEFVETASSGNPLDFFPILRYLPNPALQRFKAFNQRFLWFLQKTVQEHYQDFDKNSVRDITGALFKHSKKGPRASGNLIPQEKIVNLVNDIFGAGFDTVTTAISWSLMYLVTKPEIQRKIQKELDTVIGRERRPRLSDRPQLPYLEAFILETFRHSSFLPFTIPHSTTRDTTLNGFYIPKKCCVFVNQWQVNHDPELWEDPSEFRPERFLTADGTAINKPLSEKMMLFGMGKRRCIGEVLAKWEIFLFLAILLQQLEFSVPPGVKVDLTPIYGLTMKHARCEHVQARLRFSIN

[6] = molecular target: T3, Alkaline phosphatase, tissue-nonspecific isozyme (Homo sapiens, UniProt P05186); experiment: inhibition of tissue-nonspecific alkaline phosphatase – biochemical, dose response (AID 488882); type: functional
T3 sequence (P05186 whole entry): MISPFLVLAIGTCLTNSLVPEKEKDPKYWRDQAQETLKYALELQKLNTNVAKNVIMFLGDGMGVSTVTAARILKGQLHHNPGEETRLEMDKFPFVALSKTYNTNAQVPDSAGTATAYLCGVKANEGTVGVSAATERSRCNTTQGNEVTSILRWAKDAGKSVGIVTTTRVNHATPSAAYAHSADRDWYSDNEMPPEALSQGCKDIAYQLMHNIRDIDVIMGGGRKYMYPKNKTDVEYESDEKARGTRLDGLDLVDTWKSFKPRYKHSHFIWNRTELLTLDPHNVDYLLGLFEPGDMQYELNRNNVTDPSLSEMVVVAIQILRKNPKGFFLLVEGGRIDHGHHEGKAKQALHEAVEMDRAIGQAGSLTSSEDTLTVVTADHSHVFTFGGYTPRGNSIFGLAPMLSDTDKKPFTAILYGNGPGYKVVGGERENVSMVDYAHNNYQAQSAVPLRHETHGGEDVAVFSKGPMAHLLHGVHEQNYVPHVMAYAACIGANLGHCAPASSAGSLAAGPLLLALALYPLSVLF

[7] = molecular target: T4, Oxysterols receptor LXR-beta (Homo sapiens, UniProt P55055); type: functional, cell-based;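 note: Cell-based luminescence dose-response assay of agonist activity at LXR, run as a confirmatory counterscreen to a daf-12 agonist screen; HEK293 cells with Gal4-LXR fusion and GAL4-driven luciferase reporter; agonist potency from rising luciferase signal of a Gal4-LXR reporter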
T4 sequence (P55055 whole entry): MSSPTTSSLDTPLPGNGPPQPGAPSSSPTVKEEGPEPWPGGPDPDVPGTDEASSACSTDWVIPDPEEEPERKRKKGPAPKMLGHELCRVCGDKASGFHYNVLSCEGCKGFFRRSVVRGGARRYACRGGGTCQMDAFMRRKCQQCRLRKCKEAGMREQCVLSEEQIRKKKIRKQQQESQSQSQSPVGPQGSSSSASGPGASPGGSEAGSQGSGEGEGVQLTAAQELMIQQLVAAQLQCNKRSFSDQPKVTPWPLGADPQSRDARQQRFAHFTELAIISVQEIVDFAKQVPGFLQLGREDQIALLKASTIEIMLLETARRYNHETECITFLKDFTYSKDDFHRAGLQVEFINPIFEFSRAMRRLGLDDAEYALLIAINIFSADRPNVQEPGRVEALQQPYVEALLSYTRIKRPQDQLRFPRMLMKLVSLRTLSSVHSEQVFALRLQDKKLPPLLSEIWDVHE

[8] = molecular target: Intestinal-type alkaline phosphatase (Mus musculus, UniProt P24822); experiment: PubChem AID 488874; type: functional
[9] = cells
[10] = molecular target: Nonstructural protein 1 (Influenza A virus, UniProt Q194T2); type: functional, Influenza A virus (A/California/07/2009(H1N1))
[11] = molecular target: T5, Intestinal-type alkaline phosphatase (Homo sapiens, UniProt P09923); experiment: inhibition of human intestinal alkaline phosphatase – biochemical, luminescent, uHTS hits, set 2, dose response (AID 488793); type: functional
[12] = molecular target: T5, Intestinal-type alkaline phosphatase; experiment: Dose Response confirmation of uHTS hits from a small molecule inhibitors of human intestinal alkaline phosphatase via a luminescent assay. [Related pubchem assays (depositor defined):AID2544, AID2574]; type: functional

T5 sequence (P09923 whole entry): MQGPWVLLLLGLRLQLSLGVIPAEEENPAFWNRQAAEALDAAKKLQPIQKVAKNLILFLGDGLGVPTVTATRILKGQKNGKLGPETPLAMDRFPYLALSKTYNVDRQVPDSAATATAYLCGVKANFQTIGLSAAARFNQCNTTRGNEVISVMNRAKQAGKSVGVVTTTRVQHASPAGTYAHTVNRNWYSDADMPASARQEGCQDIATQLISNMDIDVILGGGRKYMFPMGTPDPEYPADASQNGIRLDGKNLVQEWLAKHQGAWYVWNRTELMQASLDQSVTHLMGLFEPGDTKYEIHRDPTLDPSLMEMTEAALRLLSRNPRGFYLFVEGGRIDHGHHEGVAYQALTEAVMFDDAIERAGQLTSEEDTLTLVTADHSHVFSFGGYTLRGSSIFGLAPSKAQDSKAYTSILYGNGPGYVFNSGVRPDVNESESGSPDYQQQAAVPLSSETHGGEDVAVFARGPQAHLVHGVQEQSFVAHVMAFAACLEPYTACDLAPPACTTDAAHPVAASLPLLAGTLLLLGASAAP
T1 sequence (O95180 whole entry): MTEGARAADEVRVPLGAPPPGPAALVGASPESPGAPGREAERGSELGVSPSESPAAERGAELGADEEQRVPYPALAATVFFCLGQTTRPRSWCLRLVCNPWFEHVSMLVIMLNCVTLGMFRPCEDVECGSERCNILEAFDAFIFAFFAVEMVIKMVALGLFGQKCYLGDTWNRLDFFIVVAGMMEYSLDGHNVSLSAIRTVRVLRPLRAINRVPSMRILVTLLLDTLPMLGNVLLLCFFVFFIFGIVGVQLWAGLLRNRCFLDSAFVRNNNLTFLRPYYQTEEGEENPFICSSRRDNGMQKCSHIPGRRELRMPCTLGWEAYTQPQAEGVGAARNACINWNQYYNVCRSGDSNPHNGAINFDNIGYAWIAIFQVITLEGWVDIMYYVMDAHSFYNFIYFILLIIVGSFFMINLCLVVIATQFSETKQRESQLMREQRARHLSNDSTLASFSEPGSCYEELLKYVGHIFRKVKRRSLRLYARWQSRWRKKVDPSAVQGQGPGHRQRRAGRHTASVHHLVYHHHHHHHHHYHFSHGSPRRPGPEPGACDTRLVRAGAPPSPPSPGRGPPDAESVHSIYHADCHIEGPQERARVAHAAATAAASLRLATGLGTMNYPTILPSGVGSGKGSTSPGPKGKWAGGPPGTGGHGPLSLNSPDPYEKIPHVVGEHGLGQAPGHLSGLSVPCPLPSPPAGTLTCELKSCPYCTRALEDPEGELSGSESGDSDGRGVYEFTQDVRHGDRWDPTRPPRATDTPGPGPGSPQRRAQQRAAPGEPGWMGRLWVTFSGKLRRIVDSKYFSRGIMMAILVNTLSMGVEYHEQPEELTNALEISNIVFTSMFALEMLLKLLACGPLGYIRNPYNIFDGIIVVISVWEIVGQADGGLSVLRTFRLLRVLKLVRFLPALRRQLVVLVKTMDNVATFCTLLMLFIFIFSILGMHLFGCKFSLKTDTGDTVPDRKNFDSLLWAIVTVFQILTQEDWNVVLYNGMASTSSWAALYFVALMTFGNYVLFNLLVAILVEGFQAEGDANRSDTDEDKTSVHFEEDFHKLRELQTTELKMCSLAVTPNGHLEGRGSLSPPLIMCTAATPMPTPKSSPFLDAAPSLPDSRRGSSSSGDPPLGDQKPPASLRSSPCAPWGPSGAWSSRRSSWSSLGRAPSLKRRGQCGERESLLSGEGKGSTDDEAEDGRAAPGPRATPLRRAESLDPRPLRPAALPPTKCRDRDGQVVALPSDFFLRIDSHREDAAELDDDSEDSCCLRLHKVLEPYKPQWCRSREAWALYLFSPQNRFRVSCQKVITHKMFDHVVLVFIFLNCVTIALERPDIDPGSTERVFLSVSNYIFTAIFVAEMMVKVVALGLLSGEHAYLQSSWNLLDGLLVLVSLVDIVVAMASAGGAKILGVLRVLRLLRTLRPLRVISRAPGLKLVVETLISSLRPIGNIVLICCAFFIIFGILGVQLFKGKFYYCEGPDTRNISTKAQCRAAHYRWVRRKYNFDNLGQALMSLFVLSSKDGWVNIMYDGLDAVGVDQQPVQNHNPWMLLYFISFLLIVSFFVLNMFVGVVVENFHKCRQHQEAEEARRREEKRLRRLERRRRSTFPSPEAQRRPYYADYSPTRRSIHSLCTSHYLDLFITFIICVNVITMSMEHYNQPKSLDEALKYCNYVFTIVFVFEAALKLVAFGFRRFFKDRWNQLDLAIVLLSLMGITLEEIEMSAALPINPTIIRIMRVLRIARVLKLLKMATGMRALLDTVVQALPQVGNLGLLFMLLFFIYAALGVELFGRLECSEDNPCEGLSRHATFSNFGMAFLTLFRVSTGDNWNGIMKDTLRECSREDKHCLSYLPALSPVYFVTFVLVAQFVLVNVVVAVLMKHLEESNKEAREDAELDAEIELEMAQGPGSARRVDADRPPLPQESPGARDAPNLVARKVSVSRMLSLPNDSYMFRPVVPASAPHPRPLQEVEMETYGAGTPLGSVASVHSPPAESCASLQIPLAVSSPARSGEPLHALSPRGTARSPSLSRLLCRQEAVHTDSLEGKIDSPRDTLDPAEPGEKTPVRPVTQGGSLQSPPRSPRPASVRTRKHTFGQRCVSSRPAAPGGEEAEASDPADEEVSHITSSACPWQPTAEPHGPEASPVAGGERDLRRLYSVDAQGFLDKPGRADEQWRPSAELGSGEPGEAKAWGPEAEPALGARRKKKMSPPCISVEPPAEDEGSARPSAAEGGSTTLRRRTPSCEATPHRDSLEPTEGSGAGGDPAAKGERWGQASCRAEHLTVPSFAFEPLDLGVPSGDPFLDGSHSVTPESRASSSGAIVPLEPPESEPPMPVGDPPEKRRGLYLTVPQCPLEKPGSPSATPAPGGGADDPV
Sequence of Cytochrome P450 2C9 (P11712 whole entry): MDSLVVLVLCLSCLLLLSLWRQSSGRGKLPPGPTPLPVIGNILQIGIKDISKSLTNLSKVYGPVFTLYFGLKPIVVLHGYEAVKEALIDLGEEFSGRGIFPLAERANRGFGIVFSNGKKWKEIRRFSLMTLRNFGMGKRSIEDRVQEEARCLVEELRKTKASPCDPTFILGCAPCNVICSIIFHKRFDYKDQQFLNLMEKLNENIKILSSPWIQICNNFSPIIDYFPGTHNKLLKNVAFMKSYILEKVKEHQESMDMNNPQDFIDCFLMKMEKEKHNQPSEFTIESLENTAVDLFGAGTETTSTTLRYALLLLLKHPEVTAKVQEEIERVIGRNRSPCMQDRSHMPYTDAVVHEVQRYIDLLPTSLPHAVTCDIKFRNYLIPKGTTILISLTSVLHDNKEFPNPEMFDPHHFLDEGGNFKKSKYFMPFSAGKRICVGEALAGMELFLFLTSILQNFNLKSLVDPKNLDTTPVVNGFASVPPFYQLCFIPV
Sequence of Intestinal-type alkaline phosphatase (Mus musculus, UniProt P24822) (P24822 whole entry): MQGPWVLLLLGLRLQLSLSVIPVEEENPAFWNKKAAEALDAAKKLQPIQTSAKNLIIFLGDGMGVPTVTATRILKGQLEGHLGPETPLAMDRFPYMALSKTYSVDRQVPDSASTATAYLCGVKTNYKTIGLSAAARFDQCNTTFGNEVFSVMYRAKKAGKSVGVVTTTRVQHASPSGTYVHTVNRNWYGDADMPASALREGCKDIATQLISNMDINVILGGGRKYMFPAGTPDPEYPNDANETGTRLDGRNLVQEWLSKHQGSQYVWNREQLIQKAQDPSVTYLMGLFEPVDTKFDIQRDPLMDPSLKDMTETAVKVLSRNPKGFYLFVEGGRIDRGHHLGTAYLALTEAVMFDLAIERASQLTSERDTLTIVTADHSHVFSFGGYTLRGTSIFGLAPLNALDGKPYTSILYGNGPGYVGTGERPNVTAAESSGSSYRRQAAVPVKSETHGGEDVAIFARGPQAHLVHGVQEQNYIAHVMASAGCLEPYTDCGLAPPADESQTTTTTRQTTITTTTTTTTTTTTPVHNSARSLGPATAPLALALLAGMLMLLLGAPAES
Sequence of Cytochrome P450 2C19 (P33261 whole entry): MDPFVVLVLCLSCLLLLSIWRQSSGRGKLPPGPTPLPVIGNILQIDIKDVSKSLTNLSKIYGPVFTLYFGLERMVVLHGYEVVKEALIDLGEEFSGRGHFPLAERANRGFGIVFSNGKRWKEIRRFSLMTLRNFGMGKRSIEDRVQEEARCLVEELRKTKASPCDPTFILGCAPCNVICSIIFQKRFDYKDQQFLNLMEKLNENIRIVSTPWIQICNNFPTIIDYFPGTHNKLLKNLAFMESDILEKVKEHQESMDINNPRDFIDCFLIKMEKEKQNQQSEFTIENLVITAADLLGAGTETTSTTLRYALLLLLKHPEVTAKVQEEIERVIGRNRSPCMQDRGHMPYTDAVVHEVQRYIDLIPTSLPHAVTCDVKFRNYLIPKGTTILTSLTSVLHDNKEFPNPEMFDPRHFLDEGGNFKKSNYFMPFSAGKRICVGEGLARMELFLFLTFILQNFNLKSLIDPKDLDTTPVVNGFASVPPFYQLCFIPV
Sequence of Nonstructural protein 1 (Q194T2 whole entry): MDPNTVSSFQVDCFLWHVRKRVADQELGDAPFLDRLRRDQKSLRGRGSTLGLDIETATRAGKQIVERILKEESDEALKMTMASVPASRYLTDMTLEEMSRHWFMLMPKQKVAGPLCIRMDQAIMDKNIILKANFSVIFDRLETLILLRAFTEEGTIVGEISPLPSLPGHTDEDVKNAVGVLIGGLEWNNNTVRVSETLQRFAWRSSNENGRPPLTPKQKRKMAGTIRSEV

CC(C)(C)CCN1CC2CCC(NC(=O)c3cc(Cl)cc(Cl)c3)C2C1 (configuration not stated)
EC50 [1]: 80 nM (active)
EC50 [2]: 660 nM (active)

Cc1noc(C)c1C(=O)N1CCC2(CCCN(C(=O)NC(C)C)C2)CC1
AC50 [3]: inconclusive
AC50 [4]: inconclusive
AC50 [5]: inconclusive

CN(C)c1ccc(N=Nc2ccccc2Br)cc1
IC50 [6]: 38.2 µM (active)
EC50 [7]: > 67.5 µM (inactive)
IC50 [8]: 36 µM (active)
EC50 [9]: > 67.5 µM (inactive)
IC50 [10]: 17.2 µM (active)
IC50 [11]: 30.9 µM (active)
IC50 [12]: 28.1 µM (inactive)
